Among the data in BindingDB's records for doi:10.1021/acs.jmedchem.5b01331 (2016) are EC50 values, retold here.

Structures are written as SMILES.

A short description of this assay: Antagonist activity at recombinant human GPR55 expressed in HEK293 cells assessed as inhibition of LPI mediated receptor activation by measuring LPI EC50 after 5 mins by xCELLigence assay (Rvb = 1.6 to 4.1 nM).
In the case of `COc1ccc2c(c1)OC(C)(C)c1cn(CCN3CCN(C(=O)C4CCCO4)CC3)nc1-2` (centres undefined), the 50% effective concentration (EC50) (in general, the concentration giving half of the maximal effect) was 25 nM.
Under `COc1ccc2c(c1)OC(C)(C)c1cn(CCN3CCN(C(=O)c4ccccc4)CC3)nc1-2` stands 16 nM; under `COc1ccc(N2CCN(CC(=O)NCn3ncc4c3-c3ccc(OC)cc3OC4(C)C)CC2)cc1`, 27 nM; under `COc1ccc2c(c1)OC(C)(C)c1cn(CNC(=O)CN3CCN(c4cccc(C)c4C)CC3)nc1-2`, 30 nM.
Next, `COc1ccc2c(c1)OC(C)(C)c1cn(CNC(=O)CN3CCN(c4ccccc4OC)CC3)nc1-2`: 28 nM; `COc1ccc2c(c1)OC(C)(C)c1cn(CNC(=O)CN3CCN(c4ccccc4)CC3)nc1-2`: 32 nM.
Next, `COc1ccc2c(c1)OC(C)(C)c1cnn(CNC(=O)CN3CCN(c4ccccc4)CC3)c1-2`: 28 nM; `COc1ccc2c(c1)OC(C)(C)c1cnn(CCN3CCN(C(=O)c4cccs4)CC3)c1-2`: 29 nM; `COc1ccc2c(c1)OC(C)(C)c1cnn(CCN3CCN(C(=O)c4ccco4)CC3)c1-2`: 20 nM.
